Experiments:
[1] = test system: dysmenorrhoea; conditions: clinical study, compared to patients taking placebo; cited from earlier work
[2] = target: T1, cloned human V1a receptor (Homo sapiens, UniProt P37288); assay: in vitro functional calcium mobilisation assay (FLIPR), antagonist activity, 1321N1 cells, 250 pM AVP; assay type: cell-based; conditions: functional pKi derived from pIC50 (Equation 1), FLIPR Ca2+ mobilisation, 1321N1 cells expressing cloned human V1a receptor, read-out: Mean fpKi (Human V1a) (converted)
T1 construct: host or cells: human brain astrocytoma 1321N1 cells
T1 sequence (P37288 whole entry): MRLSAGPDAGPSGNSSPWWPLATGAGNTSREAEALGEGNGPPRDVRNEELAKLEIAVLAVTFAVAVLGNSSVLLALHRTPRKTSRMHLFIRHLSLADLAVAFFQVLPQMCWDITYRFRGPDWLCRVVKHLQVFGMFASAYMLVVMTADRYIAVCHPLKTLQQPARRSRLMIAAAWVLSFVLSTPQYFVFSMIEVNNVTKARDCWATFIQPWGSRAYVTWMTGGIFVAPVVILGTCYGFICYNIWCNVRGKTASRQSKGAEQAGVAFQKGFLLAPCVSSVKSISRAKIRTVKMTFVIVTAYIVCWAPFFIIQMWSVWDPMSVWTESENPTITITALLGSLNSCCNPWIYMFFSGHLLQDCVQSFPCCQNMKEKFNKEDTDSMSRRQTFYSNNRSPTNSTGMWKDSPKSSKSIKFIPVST
Method in brief: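 Antagonism measured as inhibition of calcium mobilisation induced by 250 pM AVP, with increasing compound concentrations, in 1321N1 astrocytoma cells stably expressing the receptor. pIC50 from 4-parameter logistic fit, converted to functional pKi using agonist concentration and agonist EC50.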

| Compound | Ki [2] [nM] | amount of additional pain-killer taken [1] | pain [1] |
| --- | --- | --- | --- |
| COc1ccc(S(=O)(=O)N2c3ccc(Cl)cc3[C@](O)(c3ccccc3Cl)[C@@H]2C(=O)N2CCC[C@H]2C(N)=O)cc1OC [SR49059] | – | dose-related decrease in the amount of additional pain-killer taken | dose-related decrease in pain |
| Cc1ccc2c(c1)-c1[nH]c(C3CCOCC3)nc1CCN2C(=O)C1CCN(c2cccc(C)n2)CC1 [Example 65] | 7.59 | – | – |
| COc1cccc(N2CCC(C(=O)N3CCc4nc(N5CCOCC5)[nH]c4-c4cc(Cl)ccc43)CC2)n1 [Example 68] | 1.91 | – | – |
| COc1ccc(N2CCC(C(=O)N3CCc4nc(C5CCOCC5)[nH]c4-c4cc(C)ccc43)CC2)nc1 [Example 42] | 5.62 | – | – |
| Cc1cccc(N2CCC(C(=O)N3CCc4nc(C)[nH]c4-c4cc(Cl)ccc43)CC2)c1 [Example 90] | 9.55 | – | – |
| Cc1ccc2c(c1)-c1[nH]c(N3CCOCC3)nc1CCN2C(=O)C1CCN(c2ncccc2C)CC1 [Example 2, (9-Methyl-2-morpholin-4-yl-4,5-dihydro-1H-1,3,6-triaza-benzo[e]azulen-6-yl)-(3′-methyl-3,4,5,6-tetrahydro-2H-[1,2′]bipyridinyl-4-yl)-methanone] | 1.45 | – | – |
| O=C(C1CCN(c2ccccn2)CC1)N1CCc2nc(N3CCOCC3)[nH]c2-c2ccccc21 [Example 9] | 18.2 | – | – |
| Cc1ccc2c(c1)-c1[nH]c(C3CC3)nc1CCN2C(=O)C1CCN(c2ccccn2)CC1 [Example 24] | 8.71 | – | – |

Further lines, with some results ahead:

| Ki [2] [nM] | Compound | amount of additional pain-killer taken [1] | pain [1] |
| --- | --- | --- | --- |
| 35.5 | O=C(C1CCN(c2nccc(C(F)(F)F)n2)CC1)N1Cc2cnn(C3CCCCC3)c2Nc2ccccc21 [Example 99] | – | – |
| 3.16 | CCc1ccc(N2CCC(C(=O)N3CCc4nc(C)[nH]c4-c4cc(Cl)ccc43)CC2)cc1 [Example 95] | – | – |
| 3.16 | COc1ccccc1N1CCC(C(=O)N2Cc3cccn3Cc3ccccc32)CC1 [Example 162] | – | – |
| 2.51 | Nc1ccc(N2CCC(C(=O)N3Cc4cccn4Cc4ccccc43)CC2)cc1 [Example 176] | – | – |
| 16.2 | COc1ccc(N2CCC(C(=O)N3CCc4nc(C)[nH]c4-c4cc(Cl)ccc43)CC2)cc1 [Example 94] | – | – |
| 3.09 | COc1ccc(N2CCC(C(=O)N3Cc4cnn(C)c4Nc4cc(C)ccc43)CC2)cc1 [Example 131] | – | – |

Reference: patent US20110312941A1, “1,4-DISUBSTITUTED PIPERIDINES AS VASOPRESSIN RECEPTOR VIA ANTAGONISTS” (VANTIA LIMITED, priority 2009, published 2011)
